Measured values as given in patent US20260116910A1, “POLYCYCLIC COMPOUNDS AND METHODS THEREOF” (HEPAITECH (BEIJING) BIOPHARMA TECHNOLOGY CO., LTD., priority 2021, published 2026).

Tests used:
[1] = biological target: T1, human FXR (NR1H4) (Homo sapiens, UniProt Q96RI1); experiment: Human FXR (NR1H4) agonist assessment, FXRE-NanoLuc reporter in HEK293T cells; assay type: cell-based; conditions: FXR activation, HEK293T FXRE-NanoLuc reporter, 24 hr; for EC50: read-out: EC50
T1 sequence (Q96RI1 1-476 isoform Q96RI1-1): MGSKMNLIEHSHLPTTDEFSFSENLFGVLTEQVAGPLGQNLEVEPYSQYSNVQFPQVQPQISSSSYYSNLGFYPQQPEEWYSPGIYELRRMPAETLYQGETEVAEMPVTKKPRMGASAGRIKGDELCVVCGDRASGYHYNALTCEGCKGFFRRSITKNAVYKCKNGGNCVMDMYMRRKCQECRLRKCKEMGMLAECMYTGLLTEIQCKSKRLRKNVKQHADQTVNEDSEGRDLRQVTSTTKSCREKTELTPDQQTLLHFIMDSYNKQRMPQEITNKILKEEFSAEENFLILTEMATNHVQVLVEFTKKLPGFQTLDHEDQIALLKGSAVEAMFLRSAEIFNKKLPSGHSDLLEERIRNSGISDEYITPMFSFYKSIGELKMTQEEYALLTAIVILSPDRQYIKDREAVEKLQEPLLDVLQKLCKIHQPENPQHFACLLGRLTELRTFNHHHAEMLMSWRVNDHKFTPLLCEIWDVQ
In short: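 HEK293T cells stably expressing human FXR with an FXRE-NanoLuc reporter were treated with compounds for 24 hr at 37 °C, with 0.01% DMSO as negative control. Medium was read for luminescence after 5 min with coelenterazine. EC50 was fitted by sigmoid to concentration-response data.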

[2] = biological target: MRGPRX4 (Homo sapiens, UniProt Q96LA9); experiment: MRGPRX4 activation, Fluo-8 Ca2+ FLIPR assay in HEK293T cells stably expressing MRGPRX4; assay type: cell-based; design: key to MRGPRX4 activation, Average / MRGPRX4 activation, Ave.: fluorescence change dF/F0; conditions: for EC50: MRGPRX4 activation, Ca2+ fluorescence, no activation in tested range reported as III, read-out: Activity (EC50 μM)
In short: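 Cells seeded overnight to >95% confluence, loaded 40-60 min at room temperature with 2 μM Fluo-8 AM, then kept in HHBS. Baseline read 30 s, compound added, signal followed 150 s more.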

Chain of MRGPRX4 (Q96LA9 whole entry): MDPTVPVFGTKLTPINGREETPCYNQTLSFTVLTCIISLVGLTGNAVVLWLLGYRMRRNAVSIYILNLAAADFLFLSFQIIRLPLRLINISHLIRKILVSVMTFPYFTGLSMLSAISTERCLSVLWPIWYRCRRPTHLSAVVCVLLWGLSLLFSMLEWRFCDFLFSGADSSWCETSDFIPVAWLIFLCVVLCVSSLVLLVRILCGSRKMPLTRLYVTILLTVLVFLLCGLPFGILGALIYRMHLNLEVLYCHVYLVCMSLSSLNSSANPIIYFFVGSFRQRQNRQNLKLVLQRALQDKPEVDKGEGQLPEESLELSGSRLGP

SMILES	Efficacy (maximum measured induction of NanoLuc, normalized to CDCA set as 100%) [1]	EC50 [1] [µM]	MRGPRX4 activation, Average ([2]; E3-9, Conc. (Log[M]) −4.0)	MRGPRX4 activation, Average ([2]; E3-9, Conc. (Log[M]) −4.5)	MRGPRX4 activation, Average ([2]; E3-9, Conc. (Log[M]) −5.0)	MRGPRX4 activation, Average ([2]; E3-9, Conc. (Log[M]) −5.4)	MRGPRX4 activation, Average ([2]; E3-9, Conc. (Log[M]) −5.9)	MRGPRX4 activation, Average ([2]; E3-9, Conc. (Log[M]) −6.4)	MRGPRX4 activation, Average ([2]; E3-9, Conc. (Log[M]) −6.9)	MRGPRX4 activation, Average ([2]; E3-9, Conc. (Log[M]) −7.3)	MRGPRX4 activation, Average ([2]; E3-9, Conc. (Log[M]) −7.8)	MRGPRX4 activation, Average ([2]; E3-9, Conc. (Log[M]) −8.3)	EC50 [2] [µM]	MRGPRX4 activation, fluorescence change (dF/F0), Average ([2]; Conc. (Log[M]) −4.5)	further results
CC[C@H]1[C@@H](O)[C@@H]2[C@H](CC[C@]3(C)[C@@H]([C@H](C)CCNS(=O)(=O)CC(C)C)CC[C@@H]23)[C@@]2(C)CCCC[C@@H]12 [6-4]	C (100%<efficacy <=300%)	> 10	0.027	0.011	0.011	0.018	0.016	0.011	0.018	0.018	0.020	0.018	> 100	–	–
CC[C@H]1[C@@H](OC(=O)c2cccc(I)c2)[C@@H]2[C@H](CC[C@]3(C)[C@@H]([C@H](C)CCC(=O)OC)CC[C@@H]23)[C@@]2(C)CCCC[C@@H]12 [1-5]	D (efficacy <=100%)	> 10	–	–	–	–	–	–	–	–	–	–	50 to 100	−0.027	MRGPRX4 activation, fluorescence change (dF/F0), Average ([2]; Conc. (Log[M]) −4): 0.035; MRGPRX4 activation, fluorescence change (dF/F0), Average ([2]; Conc. (Log[M]) −5): −0.045; MRGPRX4 activation, fluorescence change (dF/F0), Average ([2]; Conc. (Log[M]) −5.5): −0.034; MRGPRX4 activation, fluorescence change (dF/F0), Average ([2]; Conc. (Log[M]) −6): −0.041; MRGPRX4 activation, fluorescence change (dF/F0), Average ([2]; Conc. (Log[M]) −7): −0.027; MRGPRX4 activation, fluorescence change (dF/F0), Average ([2]; Conc. (Log[M]) −8): −0.049; MRGPRX4 activation, fluorescence change (dF/F0), Average ([2]; Conc. (Log[M]) −9): −0.084
CC[C@H]1[C@@H](O)[C@@H]2[C@H](CC[C@]3(C)[C@@H]([C@H](C)CNC(=O)NS(=O)(=O)c4ccc(N5CCCCC5)nc4)CC[C@@H]23)[C@@]2(C)CCCC[C@@H]12 [20-3]	B (300%<efficacy <=400%)	1 to 10	–	–	–	–	–	–	–	–	–	–	> 100	–	Activation (%) ([2]; second E3-8-1, 4.6 nM, n = 1): 3.48%; Activation (%) ([2]; second E3-8-1, 4.6 nM, n = 2): 2.86%; Activation (%) ([2]; second E3-8-1, 14 nM, n = 1): 3.48%; Activation (%) ([2]; second E3-8-1, 14 nM, n = 2): 3.79%; Activation (%) ([2]; second E3-8-1, 41 nM, n = 1): 3.48%; Activation (%) ([2]; second E3-8-1, 41 nM, n = 2): 3.48%; Activation (%) ([2]; second E3-8-1, 123 nM, n = 1): 3.17%; Activation (%) ([2]; second E3-8-1, 123 nM, n = 2): 3.79%; Activation (%) ([2]; second E3-8-1, 370 nM, n = 1): 3.17%; Activation (%) ([2]; second E3-8-1, 370 nM, n = 2): 3.17%; Activation (%) ([2]; second E3-8-1, 1111 nM, n = 1): 3.79%; Activation (%) ([2]; second E3-8-1, 1111 nM, n = 2): 3.48%; Activation (%) ([2]; second E3-8-1, 3333 nM, n = 1): 2.55%; Activation (%) ([2]; second E3-8-1, 3333 nM, n = 2): 3.17%; Activation (%) ([2]; second E3-8-1, 10000 nM, n = 1): 2.55%; Activation (%) ([2]; second E3-8-1, 10000 nM, n = 2): 3.17%; Activation (%) ([2]; second E3-8-1, 30000 nM, n = 1): 1.63%; Activation (%) ([2]; second E3-8-1, 30000 nM, n = 2): 2.24%
CCCCS(=O)(=O)NC(=O)NCC[C@@H](C)[C@H]1CC[C@H]2[C@@H]3[C@H](O)[C@H](CC)[C@@H]4CCCC[C@]4(C)[C@H]3CC[C@]12C [5-14]	C (100%<efficacy <=300%)	< 1	–	–	–	–	–	–	–	–	–	–	> 100	–	MRGPRX4 activation, Average ([2]; E3-6-2, 1st of 6 concentration columns (head not in rows shown)): 0.070; MRGPRX4 activation, Average ([2]; E3-6-2, 3rd of 6 concentration columns (head not in rows shown)): 0.017; MRGPRX4 activation, Average ([2]; E3-6-2, 6th of 6 concentration columns (head not in rows shown)): 0.017; MRGPRX4 activation, Average ([2]; E3-6-2, concentration not given): 0.017
CC[C@H]1[C@@H](O)[C@@H]2[C@H](CC[C@]3(C)[C@@H]([C@H](C)CCNC(=O)NS(=O)(=O)c4ccc(C(C)(C)C#N)cc4)CC[C@@H]23)[C@@]2(C)CCCC[C@@H]12 [5-17]	C (100%<efficacy <=300%)	< 1	–	–	–	–	–	–	–	–	–	–	> 100	0.018	MRGPRX4 activation, fluorescence change (dF/F0), Average ([2]; Conc. (Log[M]) −4.0): 0.016; MRGPRX4 activation, fluorescence change (dF/F0), Average ([2]; Conc. (Log[M]) −5.0): 0.019; MRGPRX4 activation, fluorescence change (dF/F0), Average ([2]; Conc. (Log[M]) −5.4): 0.016; MRGPRX4 activation, fluorescence change (dF/F0), Average ([2]; Conc. (Log[M]) −5.9): 0.018; MRGPRX4 activation, fluorescence change (dF/F0), Average ([2]; Conc. (Log[M]) −6.4): 0.018; MRGPRX4 activation, fluorescence change (dF/F0), Average ([2]; Conc. (Log[M]) −6.9): 0.011; MRGPRX4 activation, fluorescence change (dF/F0), Average ([2]; Conc. (Log[M]) −7.3): 0.018; MRGPRX4 activation, fluorescence change (dF/F0), Average ([2]; Conc. (Log[M]) −7.8): 0.020; MRGPRX4 activation, fluorescence change (dF/F0), Average ([2]; Conc. (Log[M]) −8.3): 0.013
CC[C@H]1[C@@H](O)[C@@H]2[C@H](CC[C@]3(C)[C@@H]([C@H](C)CCNC(=O)NS(=O)(=O)c4ccc5c(c4)CCC(C)(C)O5)CC[C@@H]23)[C@@]2(C)CCCC[C@@H]12 [5-29]	A (efficacy >400%)	< 1	0.014	0.014	0.010	0.018	0.016	0.018	0.018	0.016	0.020	0.018	> 100	–	–
